For one substance, IC50 results are on record in patent EP0463456A1, “Phosphorus-containing HMG-CoA reductase inhibitors, new intermediates and their use” (E.R. SQUIBB & SONS, INC., priority 1990, dated 1992).

In this assay the target is T1, freshly isolated rat hepatocyte suspensions (Rattus norvegicus, UniProt P51639).
T1 sequence (P51639 1-887): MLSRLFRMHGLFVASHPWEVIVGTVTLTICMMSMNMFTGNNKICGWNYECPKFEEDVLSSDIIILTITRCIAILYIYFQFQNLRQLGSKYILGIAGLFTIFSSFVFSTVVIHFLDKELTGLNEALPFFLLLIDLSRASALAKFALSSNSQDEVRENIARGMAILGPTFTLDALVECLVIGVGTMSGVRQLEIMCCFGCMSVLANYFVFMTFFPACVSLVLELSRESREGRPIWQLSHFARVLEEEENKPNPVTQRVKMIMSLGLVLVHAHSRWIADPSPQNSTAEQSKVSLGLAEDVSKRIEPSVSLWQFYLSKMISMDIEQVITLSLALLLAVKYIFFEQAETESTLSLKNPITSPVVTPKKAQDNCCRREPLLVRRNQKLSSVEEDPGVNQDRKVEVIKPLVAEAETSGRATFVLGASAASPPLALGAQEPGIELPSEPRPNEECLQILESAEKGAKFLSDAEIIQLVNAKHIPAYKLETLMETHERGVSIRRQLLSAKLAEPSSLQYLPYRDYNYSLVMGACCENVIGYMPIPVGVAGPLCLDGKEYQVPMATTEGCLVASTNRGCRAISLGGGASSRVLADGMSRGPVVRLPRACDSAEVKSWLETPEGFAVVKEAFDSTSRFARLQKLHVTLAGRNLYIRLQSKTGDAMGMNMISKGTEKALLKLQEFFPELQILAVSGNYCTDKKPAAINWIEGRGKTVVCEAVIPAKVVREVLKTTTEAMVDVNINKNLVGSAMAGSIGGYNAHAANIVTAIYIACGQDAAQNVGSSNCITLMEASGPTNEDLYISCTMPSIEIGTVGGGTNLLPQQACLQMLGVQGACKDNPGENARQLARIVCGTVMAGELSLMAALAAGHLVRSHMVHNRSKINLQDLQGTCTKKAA
In words: Cholesterol Synthesis in Freshly Isolated Rat Hepatocytes (14C-acetate incorporation into cholesterol). It is filed as cell-based. As to conditions: inhibition of 14C-acetate incorporation into cholesterol; 2.0 hours at 37° C; read-out: Hepatocytes 150. How it is done:
2) Cholesterol Synthesis in Freshly Isolated Rat Hepatocytes […]
a. Isolation of Rat Hepatocytes
Sprague Dawley rats (180-220 grams) are anesthetized with Nembutol (50 mg/kg). The abdomen is opened and the first branch of the portal vein is tied closed. Heparin (100-200 units) is injected directly into the abdominal vena cava. A single closing suture is placed on the distal section of the portal vein, and the portal vein is canulated between the suture and the first branching vein. The liver is perfused at a rate of 20 ml/minute with prewarmed (37° C), oxygenated buffer A (HBSS without calcium or magnesium containing 0.5 mM EDTA) after severing the vena cava to allow drainage of the effluent. The liver is additionally perfused with 200 ml of prewarmed buffer B (HBSS containing 0.05% bacterial collagenase). […] Pelleted hepatocytes are washed once in Waymouth's medium, counted and assayed for viability by trypan blue exclusion. […]
Lipids are extracted essentially as described by Bligh, E. G. and W. J. Dyer, Can. […] Plates are scanned and counted using a BioScan automated scanning system. Radiolabel in the cholesterol peak (RF 0.28) is determined and expressed at total counts per peak and as a percent of the label in the total lipid extract. […]
Drug effects (% inhibition of cholesterol synthesis) are determined by comparing % of label in cholesterol for control and drug treated cultures. […]

For “(S)-4-[[[4-(4-Fluorophenyl)-1,2-bis(1-methylethyl)-5-phenyl-1H-pyrrol-3-yl]-ethynyl]hydroxyphosphinyl]-3-hydroxybutanoic acid, dilithium salt [SQ 34,346]”, the IC50 was determined as 0.078 µM.
